Here are results for 16 molecules from PMC9061857, “A fluorogenic probe for granzyme B enables in-biopsy evaluation and screening of response to anticancer immunotherapies” (Nature Communications, 2022).

Where no end group is shown, it is not given here.

Test [1] deals with co-cultures of E0771 cells and IL-2-activated CD8+ T cells. Nature of the test: Image-based phenotypic drug screen (H5 fluorescence). The conditions noted are these: for fluorescence signals compared to IL-2 only controls: combination with IL-2.
Procedure: E0771 and CD8+ T cells were co-cultured for 2 days and then incubated with IL-2 (100 U mL^−1) and each individual drug at their respective working concentrations for 3 h (Table S5).
Wells received 100 U mL^−1 IL-2 (low IL-2) for T cell viability. […] Data as means ± SEM (n = 8). […] Data as means ± SD (n = 5). P-value from two-tailed t-tests.
E0771 (750 cells/well) and freshly isolated murine CD8+ T cells (6000 cells/well) were plated in 384-well plates as described above. After 2 days of co-culture at 37 °C, cells were further incubated with IL-2 alone (100 or 250 U mL^−1) or IL-2 (100 U mL^−1) in combination with drugs (Table S5) for 3 h. […] Briefly, nuclei were used as seeds to create a pseudo-cell area and GzmB-positive puncta were detected using a top-hat filter (pixel size: 10, circle shape) followed by an average filter (3 × 3 pixels).
Another test deals with E0771 cells. Description: Flow cytometry of E0771 cells in co-culture with CD8+ T cells. It counts as cell-based, mouse. The conditions noted are these: E0771 alone, staurosporine 1 μM, 1 h. The procedure:
Treatments with staurosporine (1 μM) were for 1 h. […]
mouse CD8+ T cells and mKate-E0771 cells. b) Representative flow cytometry contour plots of E0771 cells in: left) co-cultures of E0771 cells (50,000 cells well-1) and activated […]
cells well-1), right) E0771 alone cells treated with staurosporine (1 µM, 1 h). c) Representative flow cytometry contour plots of CD8+ T cells in: left) co-cultures of E0771 […]
2 h) murine CD8+ T cells (200,000 cells well -1). All cultures in b) and c) were equally […]
with and without preincubation of the GzmB inhibitor Ac -IEPD-CHO. Data presented as […]
633/670 nm (for AF647-Annexin V). Representative plots from independent experiments performed in triplicate. Source data in d provided as a Source Data file.
(In general: A flow cytometer gives signals particle by particle.)

The subject of test [2] is E0771 cells alone or in co-culture with CD8+ T cells. Description: Hit validation of AZD5363 by flow cytometry. It counts as cell-based, mouse. The procedure:
(from 3 independent experiments) in E0771 cells alone (50,000 cells well-1) or in co-culture with CD8+ T cells (200,000 cells well-1) and treatment of AZD5363 (1 μM). concentration: 1,000 U mL-1. Excitation/emission wavelengths: 488 nm/525 nm. b) Representative flow cytometry contour plots (from 3 independent experiments; gating […]
(1 picture or pasted object on this page, not shown here) […]
strategy shown in Supplementary Figure 7) of E0771 cells (50,000 cells well-1) after co- […]
633/670 nm (for AF647-Annexin V). c) Percentages of E0771 cells that were double - […]
in a). Data presented as mean values±SEM (n=3). […]
obtained from ONE-ANOVA tests with multiple c omparisons. Source data in c provided

Test [3] addresses T1, human GzmB (hGzmB) (Homo sapiens, UniProt P10144).
T1 construct: For active GzmB vs pro-GzmB, p < 0.0001
Nature of the test: Fluorescence assay with recombinant hGzmB (fluorogenic response, time course). Format: biochemical. The procedure: Fluorescence-based assays with different enzymes were performed in the appropriate buffers. Probes (25 μM) were added to enzymes (20 nM or at the indicated concentrations) in 384-well plates and their fluorescence emission was recorded at 450 nm (for AMC) or 510 nm (for BODIPY) at 37 °C using a Synergy H1 Hybrid spectrophotometer. In experiments with Ac-IEPD-CHO (50 μM), the inhibitor was preincubated for 1 h with GzmB before the addition of any probe.

Test [4] has as its target T1, human GzmB (hGzmB). Nature of the test: HPLC conversion of fluorogenic peptides by hGzmB. Format: biochemical. Conditions: probe 25 μM (Ac-IEPD-AMC 50 μM), TRIS buffer, 37 °C, HPLC-UV. The procedure: Supplementary Figure 1. Reactivity of fluorogenic substrates against human GzmB and limits of detection. a) Reaction conversion rates (by HPLC-UV detection at 350 nm) for Ac-IEPD-AMC (50 μM) in TRIS buffer (see Methods) at 37 °C containing different concentrations of hGzmB. Data presented as mean values±SEM (n=3 independent biological experiments). b) Reaction conversion rates (by HPLC-UV detection at 500 nm) for the tetrapeptide T1 (25 μM) in TRIS buffer at 37 °C containing different concentrations of hGzmB. Data presented as mean values±SEM (3 independent biological experiments).
Source data provided as a Source Data file.
(1 picture or pasted object on this page, not shown here)
Supplementary Table 1. Chemical structures and reactivity of FRET-based tetrapeptides against human GzmB.
Code Structure Linker Quencher HPLC conversion HPLC conversion […]
Supplementary Table 2. Sequences and reactivity of FRET-based hexapeptides against […]
Code Peptide sequence HPLC conversion
H1 Ile-Glu-Pro-Asp-Ala-Gly 75%
H2 Ile-Glu-Pro-Asp-Ser-Gly 80%
H3 Ile-Glu-Pro-Asp-Ser-Leu 80%
H4 Ile-Glu-Pro-Asp-Trp-Leu 82%
H6 Ile-Glu-Pro-Asp-Trp-Arg 40%
H7 Ile-Glu-Pro-Asp-Arg-Leu 60%
H5m Ile-Glu-Phe-Asp-Ala-Leu 70%

For the next test, the system named is recombinant mouse GzmB. Description: Reactivity against recombinant mouse GzmB (fluorescence). Format: biochemical. The conditions noted are these: probe 25 μM, 90 min, 37 °C, mouse pro-GzmB 100 nM pre-activated with cathepsin C. The procedure:
and H5m (both at 25 μM) after incubation for 90 min at 37 °C with recombinant mouse
pro-GzmB (100 nM) after pre-activation with mouse cathepsin C (5.5 μg mL-1) for 4 h.
Excitation/emission wavelengths: 450 nm /510 nm. Data presented as mean values±SEM
(3 independent experiments with 3 technical replicates). Source data provided as a […]

Another test concerns the target T2, recombinant human GzmB (Homo sapiens, UniProt P10144).
T2 construct: For active GzmB vs pro-GzmB, p < 0.0001
Nature of the test: Kinetic measurements (Michaelis-Menten) with recombinant hGzmB. It counts as biochemical. The conditions noted are these: Supplementary Table 4, recombinant human GzmB. The procedure:
Fluorescence-based assays with different enzymes were performed in the appropriate buffers. […] In experiments with Ac-IEPD-CHO (50 μM), the inhibitor was preincubated for 1 h with GzmB before the addition of any probe.
Supplementary Table 4. Kinetic values determined for hexapeptides H2-H5 against
Probe Sequence kcat kcat / KM

Where [5] appears, read: probe 25 μM, hGzmB 20 nM, Data 1.
[6] abbreviates: probe 25 μM, hGzmB 20 nM, Data 2.
[7] abbreviates: probe 25 μM, hGzmB 20 nM, Data 3.

T1 sequence (P10144 21-247): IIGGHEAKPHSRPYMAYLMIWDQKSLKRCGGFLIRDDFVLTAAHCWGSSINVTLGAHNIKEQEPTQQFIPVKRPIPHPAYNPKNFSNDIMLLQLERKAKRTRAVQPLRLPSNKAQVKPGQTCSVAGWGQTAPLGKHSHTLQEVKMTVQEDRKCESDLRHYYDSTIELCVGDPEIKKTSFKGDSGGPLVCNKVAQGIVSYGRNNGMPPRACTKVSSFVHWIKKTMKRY
T2 sequence (P10144 21-247): as above

Take `CC(=O)O[C@@]12CO[C@@H]1C[C@H](O)[C@@]1(C)C(=O)[C@H](O)C3=C(C)[C@@H](OC(=O)[C@H](O)[C@@H](NC(=O)OC(C)(C)C)c4ccccc4)C[C@@](O)([C@@H](OC(=O)c4ccccc4)[C@H]21)C3(C)C` [C11, Docetaxel]: in test [1], the “fluorescence signals compared to IL-2 only controls” value is given as “Increased”.
For the molecule `C#CC[C@H](c1nc2cc(Cl)ccc2c(=O)n1Nc1ccccc1)N(CCCN)C(=O)c1cccc(Cl)c1F` [C12, ARQ621], the “fluorescence signals compared to IL-2 only controls” value in test [1] is recorded as “Increased”.
Same read-out and setting: the value for `C/C(=C\c1csc(C)n1)[C@@H]1C[C@@H]2O[C@]2(C)CCC[C@H](C)[C@H](O)[C@@H](C)C(=O)C(C)(C)[C@@H](O)CC(=O)O1` [C13, Epothilone B] was “Increased”; that for `CO[C@@]12[C@H](COC(N)=O)C3=C(C(=O)C(C)=C(N)C3=O)N1C[C@@H]1N[C@@H]12` [C18, Mitomycin C] was “Increased”.
On the same count and under the same terms, next, `Cn1nnc2c(C(N)=O)ncn2c1=O` [C20, Temozolomide]: “Increased”; `CC(=O)N[C@@H](CSC(=O)[C@]1([C@@H](O)C(C)C)NC(=O)[C@H](C)[C@@H]1O)C(=O)O` [C30, Lactacystin]: “Increased”.
As for `CN[C@@H]1C[C@H]2O[C@@](C)([C@@H]1OC)n1c3ccccc3c3c4c(c5c6ccccc6n2c5c31)C(=O)NC4` [staurosporine, reference compound], the “Annexin V +ve E0771 cells” value came out at 84% in the test on E0771 cells (replicate 1), 62% in the test on E0771 cells (replicate 2) and 71% in the test with E0771 cells (replicate 3). Further, the “viable E0771 cells” value amounted to 13% in the test with E0771 cells (replicate 1), 37% with E0771 cells (replicate 2) and 27% in the test on E0771 cells (replicate 3).
As for AZD5363 [C5], the “E0771 cells double-stained with probe H5 and AF647-Annexin V” value in test [2] (AZ only (AZD5363 1 μM), Data1) worked out at 2%; in test [2] (AZ only (AZD5363 1 μM), Data2) it was 2%; in test [2] (AZ only (AZD5363 1 μM), Data3) it was 3%; in test [2] (IL-2+AZ (AZD5363 1 μM), co-culture with CD8+ T cells, Data1) it was 33%; in test [2] (IL-2+AZ (AZD5363 1 μM), co-culture with CD8+ T cells, Data2) it was 42%; in test [2] (IL-2+AZ (AZD5363 1 μM), co-culture with CD8+ T cells, Data3) it was 44%. Further, the “cancer cell death and H5 labeling, drug on its own” value in test [2] (AZD5363 1 μM alone, E0771 cells) was “did not induce significant cancer cell death”. Further, in test [2] (AZD5363 1 μM with 100 U mL^−1 IL-2, CD8+ T cell-E0771 co-cultures), the “cancer cell death and H5 emission, drug with IL-2” value is reported as “caused significant cancer cell death”. In addition, the “fluorescence signals compared to IL-2 only controls” value in test [1] is “Increased”. In test [1] (drug 1 μM + IL-2 100 U mL^−1, 3 h), the “H5 fluorescence staining in the screen” value is on record as “brightest H5 fluorescence staining”.
Regarding Ac-IEPD-aldehyde [reference compound], the “effect on the fluorescence response of H5 to hGzmB” value at human GzmB (hGzmB) [3] (Ac-IEPD-CHO 50 μM preincubated 1 h with GzmB) is on record as “markedly reduced”.
Take “IEFDAL [H5m, hexapeptide analogue containing phenylalanine, IEFDAL]”: the “HPLC conversion (20 nM hGzmB, 2 h)” value on human GzmB (hGzmB) [4] is given as 70%. Also, the Fluorescence fold increase with recombinant mouse GzmB (Data 1) is 5.6; in the test with recombinant mouse GzmB (Data 2), 7.1; with recombinant mouse GzmB (Data 3), 5.2; with recombinant mouse GzmB (Data 4) it was 8.2; with recombinant mouse GzmB (Data 5), 10.5; in the test with recombinant mouse GzmB (Data 6) it was 7.7. Further, the figures for the Fluorescence fold increase in the test with recombinant mouse GzmB (Data 7), in the test on recombinant mouse GzmB (Data 8) and in the test with recombinant mouse GzmB (Data 9) were 9.6, 8.2 and 12.2, respectively.
On to IEPDAG [H1, FRET hexapeptide IEPDAG], for which the S/N ratios at human GzmB (hGzmB) [3] (setting [5]) is recorded as 61; on human GzmB (hGzmB) [3] (setting [6]), 48; at human GzmB (hGzmB) [3] (setting [7]), 55. Further, the t50 came out at 32 min on human GzmB (hGzmB) [3] (setting [5]), 38 min on human GzmB (hGzmB) [3] (setting [6]) and 36 min on human GzmB (hGzmB) [3] (setting [7]). The “HPLC conversion (20 nM hGzmB, 2 h)” value on human GzmB (hGzmB) [4] is 75%.
For “IEPDRL [H7, negative control FRET hexapeptide IEPDRL]”, the results for the S/N ratios on human GzmB (hGzmB) [3] (setting [6]) and at human GzmB (hGzmB) [3] (setting [7]) were 14 and 13, respectively. Besides, on human GzmB (hGzmB) [4], the “HPLC conversion (20 nM hGzmB, 2 h)” value amounted to 60%.
The kcat is the maximal rate divided by the concentration of active sites. With IEPDSG [H2, FRET hexapeptide IEPDSG], the values for the S/N ratios on human GzmB (hGzmB) [3] (setting [5]), on human GzmB (hGzmB) [3] (setting [6]) and at human GzmB (hGzmB) [3] (setting [7]) were 67, 70 and 69, respectively. Also, the t50 is 13 min on human GzmB (hGzmB) [3] (setting [5]), 15 min on human GzmB (hGzmB) [3] (setting [6]) and 14 min on human GzmB (hGzmB) [3] (setting [7]). Moreover, the kcat at recombinant human GzmB was found to be 11.2 s⁻¹. Further, the “HPLC conversion (20 nM hGzmB, 2 h)” value on human GzmB (hGzmB) [4] came out at 80%.
In the case of IEPDSL [H3, FRET hexapeptide IEPDSL], the S/N ratios was 68 on human GzmB (hGzmB) [3] (setting [5]), 76 on human GzmB (hGzmB) [3] (setting [6]) and 73 at human GzmB (hGzmB) [3] (setting [7]). For the same molecule, the t50 on human GzmB (hGzmB) [3] (setting [5]) is on record as 15 min; on human GzmB (hGzmB) [3] (setting [6]), 18 min; on human GzmB (hGzmB) [3] (setting [7]), 14 min. The kcat at recombinant human GzmB was 23.6 s⁻¹. Also, the “HPLC conversion (20 nM hGzmB, 2 h)” value at human GzmB (hGzmB) [4] was determined as 80%.
On to IEPDWL [H4, FRET hexapeptide IEPDWL], for which the S/N ratios on human GzmB (hGzmB) [3] (setting [5]) came out at 78; on human GzmB (hGzmB) [3] (setting [6]), 73; on human GzmB (hGzmB) [3] (setting [7]), 75. The t50 on human GzmB (hGzmB) [3] (setting [5]) was found to be 51 min; at human GzmB (hGzmB) [3] (setting [6]) it was 55 min; at human GzmB (hGzmB) [3] (setting [7]) it was 56 min. In addition, the kcat on recombinant human GzmB turned out to be 28.2 s⁻¹. Also, on human GzmB (hGzmB) [4], the “HPLC conversion (20 nM hGzmB, 2 h)” value was found to be 82%.
Turning to “IEPDWR [H6, negative control FRET hexapeptide IEPDWR]”, the S/N ratios was determined as 39 on human GzmB (hGzmB) [3] (setting [6]) and 40 at human GzmB (hGzmB) [3] (setting [7]). For the same molecule, at human GzmB (hGzmB) [3] (probe 25 μM, hGzmB 20 nM, mean ± SEM, n = 3), the “S/N ratios (fluorescence increase, signal-to-background)” value is listed as 12. Besides, at human GzmB (hGzmB) [4], the “HPLC conversion (20 nM hGzmB, 2 h)” value stood at 40%.
